Assay results as given in patent publication US12624009B2, “Hydrate of VEGFR inhibitor, crystal form thereof and preparation method therefor” (CHENGDU EASTON BIOPHARMACEUTICALS CO., LTD, priority 2023, dated 2026).

What was measured:
Assay type in all cases: physicochemical
[1] = Stability of crystal forms suspended and stirred in water, solids characterised by XRD; details: for crystal form stability in water: 25° C. and 37° C., 5 h and 24 h, compared with crystal forms I, II, III, VII, IV, VIII and C
Source text: The solids were filtered and subjected to XRD characterization.

[2] = Storage stability investigation of crystal forms of fruquintinib (crystal form after storage); details: for crystal form stability under the conditions investigated: 25° C./RH60% and 40° C./RH75%, storage up to 6 months (FIG. 4, 5A, 5B)
[3] = Grinding in planetary ball mill, XRD compared with simulated single-crystal pattern; details: 60 HZ, about 30 s
Source text: The XRD pattern after grinding was substantially consistent with FIG. 1B.

CNC(=O)c1c(C)oc2cc(Oc3ncnc4cc(OC)c(OC)cc34)ccc12 [Crystal form II, 6-(6,7-dimethoxyquinazolin-4-yl-oxy)-N,2-dimethylbenzofuran-3-carboxamide]
Crystal form α: Suspending and stirring for 5 h Crystal form ([1]; 25° C.) | Suspending and stirring for 24 h Crystal form ([1]; 25° C.) | Suspending and stirring for 5 h Crystal form ([1]; 37° C.) | Suspending and stirring for 24 h Crystal form ([1]; 37° C.)

CNC(=O)c1c(C)oc2cc(Oc3ncnc4cc(OC)c(OC)cc34)ccc12 [Crystal form VII, 6-(6,7-dimethoxyquinazolin-4-yl-oxy)-N,2-dimethylbenzofuran-3-carboxamide]
Crystal form α: Suspending and stirring for 5 h Crystal form ([1]; 25° C.) | Suspending and stirring for 24 h Crystal form ([1]; 25° C.) | Suspending and stirring for 5 h Crystal form ([1]; 37° C.) | Suspending and stirring for 24 h Crystal form ([1]; 37° C.)

CNC(=O)c1c(C)oc2cc(Oc3ncnc4cc(OC)c(OC)cc34)ccc12 [Crystal form I, 6-(6,7-dimethoxyquinazolin-4-yl-oxy)-N,2-dimethylbenzofuran-3-carboxamide]
Crystal form I: Suspending and stirring for 5 h Crystal form ([1]; 25° C.) | Suspending and stirring for 5 h Crystal form ([1]; 37° C.)

CNC(=O)c1c(C)oc2cc(Oc3ncnc4cc(OC)c(OC)cc34)ccc12 [Crystal form III, 6-(6,7-dimethoxyquinazolin-4-yl-oxy)-N,2-dimethylbenzofuran-3-carboxamide]
Crystal form α: Suspending and stirring for 5 h Crystal form ([1]; 25° C.) | Suspending and stirring for 24 h Crystal form ([1]; 25° C.) | Suspending and stirring for 5 h Crystal form ([1]; 37° C.) | Suspending and stirring for 24 h Crystal form ([1]; 37° C.)

CNC(=O)c1c(C)oc2cc(Oc3ncnc4cc(OC)c(OC)cc34)ccc12 [Crystal form C, 6-(6,7-dimethoxyquinazolin-4-yl-oxy)-N,2-dimethylbenzofuran-3-carboxamide]
Crystal form α: Suspending and stirring for 5 h Crystal form ([1]; 25° C.) | Suspending and stirring for 24 h Crystal form ([1]; 25° C.) | Suspending and stirring for 5 h Crystal form ([1]; 37° C.) | Suspending and stirring for 24 h Crystal form ([1]; 37° C.)

CNC(=O)c1c(C)oc2cc(Oc3ncnc4cc(OC)c(OC)cc34)ccc12 [Crystal form α + crystal form I, 6-(6,7-dimethoxyquinazolin-4-yl-oxy)-N,2-dimethylbenzofuran-3-carboxamide]
Crystal form α: Suspending and stirring for 5 h Crystal form ([1]; 25° C.) | Suspending and stirring for 24 h Crystal form ([1]; 25° C.) | Suspending and stirring for 5 h Crystal form ([1]; 37° C.) | Suspending and stirring for 24 h Crystal form ([1]; 37° C.)

CNC(=O)c1c(C)oc2cc(Oc3ncnc4cc(OC)c(OC)cc34)ccc12 [Crystal form α (after grinding), 6-(6,7-dimethoxyquinazolin-4-yl-oxy)-N,2-dimethylbenzofuran-3-carboxamide]
good crystal form stability: crystal form stability under the conditions investigated [2]
Crystal form α: Crystal form after storage ([2]; 25° C./RH60%, 6 months) | Crystal form after storage ([2]; 40° C./RH75%, 6 months)

CNC(=O)c1c(C)oc2cc(Oc3ncnc4cc(OC)c(OC)cc34)ccc12 [Crystal form α, 6-(6,7-dimethoxyquinazolin-4-yl-oxy)-N,2-dimethylbenzofuran-3-carboxamide]
good stability in water: crystal form stability in water [1]
good crystal form stability: crystal form stability under the conditions investigated [2]
Crystal form α: Crystal form after storage ([2]; 25° C./RH60%, 2 months) | Crystal form after storage ([2]; 25° C./RH60%, 6 months) | Crystal form after storage ([2]; 40° C./RH75%, 2 months) | Crystal form after storage ([2]; 40° C./RH75%, 6 months) | Suspending and stirring for 5 h Crystal form ([1]; 25° C.) | Suspending and stirring for 24 h Crystal form ([1]; 25° C.) | Suspending and stirring for 5 h Crystal form ([1]; 37° C.) | Suspending and stirring for 24 h Crystal form ([1]; 37° C.)
did not undergo polymorphic transition: polymorphic transition after grinding [3]
better crystal form stability: crystal form stability in water ([1]; listed as crystal form α of fruquintinib)

CNC(=O)c1c(C)oc2cc(Oc3ncnc4cc(OC)c(OC)cc34)ccc12 [Crystal form IV, 6-(6,7-dimethoxyquinazolin-4-yl-oxy)-N,2-dimethylbenzofuran-3-carboxamide]
Crystal form α: Suspending and stirring for 5 h Crystal form ([1]; 25° C.) | Suspending and stirring for 24 h Crystal form ([1]; 25° C.) | Suspending and stirring for 5 h Crystal form ([1]; 37° C.) | Suspending and stirring for 24 h Crystal form ([1]; 37° C.)

CNC(=O)c1c(C)oc2cc(Oc3ncnc4cc(OC)c(OC)cc34)ccc12 [Crystal form VIII, 6-(6,7-dimethoxyquinazolin-4-yl-oxy)-N,2-dimethylbenzofuran-3-carboxamide]
Crystal form α: Suspending and stirring for 5 h Crystal form ([1]; 25° C.) | Suspending and stirring for 24 h Crystal form ([1]; 25° C.) | Suspending and stirring for 5 h Crystal form ([1]; 37° C.) | Suspending and stirring for 24 h Crystal form ([1]; 37° C.)
